# Measured values published in publication PMC6960190, “Systemic Evaluation on the Pharmacokinetics of Platinum-Based Anticancer Drugs From Animal to Cell Level: Based on Total Platinum and Intact Drugs” (Frontiers in Pharmacology, 2020).
# Several values for one entry are separate records, joined by “and”; a condition that tells them apart may be missing. Identical values can stand only once.
# Key:
# [1] = system: HCT-116 cells; experiment: Elimination of oxaliplatin in HCT-116 cells; format: in vitro ADME, Human; settings: HCT-116, 200 µm oxaliplatin 30 min
# Experimental: (§1) Cells were used for studying cellular pharmacokinetics of oxaliplatin.
# (§2) Then the drug-containing medium was discarded and the cell monolayers were washed three times with cold HBSS. After that, fresh blank medium was added to the monolayers with incubation for different times of 5, 15, 30, 45, 60, 120 min.
# (§3) To evaluate the elimination behavior of oxaliplatin in colon cancer cells, both oxaliplatin and total platinum of samples are determined by UPLC-MS/MS and ICP-MS method. The results are all normalized to cell protein.
# [2] = system: HCT-116 cells; experiment: Subcellular distribution of oxaliplatin (total Pt by ICP-MS) in HCT-116 cells; settings: HCT-116, 200 µm oxaliplatin, within 2 h
# Experimental: (§4) Human colon cancer HCT-116 and LOVO cell line was purchased from cell bank of Shanghai Institute of Biochemistry and Cell Biology (Shanghai, China). HCT-116 cells and LOVO cells were maintained as monolayer cultures respectively in McCoy’s 5a medium and F-12K medium, supplemented with 10% fetal bovine serum, 1% penicillin and streptomycin, in a water-saturated atmosphere (95% air/5% CO2) at 37°C.
# (§5) We treated the cell monolayers in the same way as the uptake study above.
# (§6) Finally, all the monolayers of cells treated with drug-containing medium were washed three times with cold HBSS. Then cells were harvested by 0.25% trypsin digestion and the resulting cell suspension was centrifuged at 1,000 rpm for 5 min. For the uptake and elimination studies, pellets were then diluted in appropriate volume of water and repeatedly freeze-thawed three times to obtain drug-containing cell samples. For the subcellular distribution study, the pellets were further treated according to the manufacturer’s protocol of mitochondrial/nuclear separation kit (KeyGEN BioTECH, Nanjing, China) with differential centrifugation method to prepare the isolated cytosol, nucleus, and mitochondria samples. The cytosol, nucleus, and mitochondria were dissolved in the corresponding buffer salt from the instruction. […]
# (§7) All the prepared subcellular samples for cytosol, nucleus, and mitochondria are determined by ICP-MS method.
# [3] = system: HCT-116 cells; experiment: Uptake of oxaliplatin (total platinum and intact drug) in HCT-116 cells
# Experimental: as §4
# (§8) For the temperature dependent study, the cell monolayers were treated with 4 ml drug-containing medium at 200 µm for 30 min incubation respectively at 4 °C and 37 °C.
# (§9) Finally, all the monolayers of cells treated with drug-containing medium were washed three times with cold HBSS. Then cells were harvested by 0.25% trypsin digestion and the resulting cell suspension was centrifuged at 1,000 rpm for 5 min. For the uptake and elimination studies, pellets were then diluted in appropriate volume of water and repeatedly freeze-thawed three times to obtain drug-containing cell samples. For the subcellular distribution study, the pellets were further treated according to the manufacturer’s protocol of mitochondrial/nuclear separation kit (KeyGEN BioTECH, Nanjing, China) with differential centrifugation method to prepare the isolated cytosol, nucleus, and mitochondria samples. The cytosol, nucleus, and mitochondria were dissolved in the corresponding buffer salt from the instruction. An aliquot of 20 μl of each cellular or subcellular sample was removed for protein determination using BCA protein assay kit according to the manufacturer’s instructions (micro-well plate protocol).
# [4] = Pharmacokinetics of intact platinum-based drugs in rats (UPLC-MS/MS) in blood, plasma and ultrafiltrate plasma; settings: intraperitoneal; for complete elimination time of intact drug: equal moles, plasma and ultrafiltrate plasma
# Experimental: The biological samples were pretreatmented by precipitation with acetonitrile. To each 50 µl sample volume, 200 µl of acetonitrile containing IS (25 ng/ml) was added. The samples were then centrifuged for 10 min at 15,000 rpm, after which 5 µl of the supernatant was injected into the UPLC column for analysis of intact drug.
# The ACQUITY UPLC I class system consisted of an autosampler, pump, column oven, and controller (waters, MA, USA). Chromatographic separation was performed on an ACQUITY UPLC BEH Amide column (Part NO:186004800, 1.7 µm, 2.1 × 50mm, Waters, MA, USA) and the pre-column is ACQUITY UPLC BEH C18 (1.7µm, Waters, MA, USA). The binary mobile phase consisted of mobile phase B: acetonitrile and mobile phase A: water containing 5 mm ammonium acetate. The injection volume was 5 µl and the column temperature was 40°C. The gradient program was as follows: 0–1 min, 95% phase B; 1–2 min, 95–70% phase B; 2–4 min,70% phase B; 4–5 min, 70–95% phase B; 5–7min, 95% phase B. The total run time is 7.0 min and the flow rate was set at 0.6 ml/min.
# The UPLC system was interfaced with a Xevo TQ-XS Mass Spectrometer with MassLynx V4.2 software package (Waters, MA, USA). The mass spectrometer was operated using Turbo Spray source in positive multiple-reaction monitoring-mode (MRM) for intact drug determination. […] The optimal parameters for MS/MS conditions are as follows: capillary 2.4 kV; cone 25 V; desolvation temperature 450 °C.
# The assay method was evaluated with four kinds of matrix including blood, plasma, ultrafiltrate plasma, and cell lysate. […] The precision and accuracy for three intact platinum-based drugs in blood/plasma/ultrafiltrate plasma were investigated by replicate analysis of six sets of samples at four concentration levels: 2, 5, 200, and 4,000 ng/ml. The precision and accuracy for the assay method in cell lysate were investigated at four concentration levels of 2, 5, 20, and 160 ng/ml.
# (§10) Male Sprague-Dawley rats (n = 18, 200 ± 20g) were provided by Shanghai Jiesijie Experimental Animal Co., Ltd (Shanghai, China) and certificate number was scxk (hu) 2013-0006. Animals were allowed to adapt to the housing environment for 1 week prior to study. […] All animal studies were approved by the Animal Ethics Committee of China Pharmaceutical University.
# (§11) Blood-sampling times were arranged as 0, 0.083, 0.5, 1, 2, 4, 8, 12, 24, 48, 72h post-dose for all three platinum-based anticancer drugs. When each time point reached, blood samples (about 800 µl) were collected from the fossa orbitalis. 150 µl of the blood was spiked into another 1.5 ml tube as the blood sample. The rest of the blood was centrifuged immediately at 8,000 rpm for 10 min and the supernatant plasma was harvested. 50 µl of the supernatant plasma was spiked into 1.5 ml for determining total platinum in plasma sample and 50 µl of the supernatant plasma was spiked into 1.5 ml tube for determining intact platinum-based drug in plasma. The remaining plasma was used to prepare ultrafiltrate plasma with Amicon® Ultra 10K Centrifugal Filter Devices, centrifuged at 14,000 g for 20 min. All the samples were stored at -80 °C until analysis.
# (§12) The pharmacokinetic parameters were calculated using the software WinNonlion Version 6.4 by non-compartmental method. Statistical significance was tested by Student’s t -test. P < 0.05 was considered statistically significant, while P < 0.01 was considered highly significant.
# [5] = system: LOVO cells; experiment: Subcellular distribution of oxaliplatin (total Pt by ICP-MS) in LOVO cells; settings: 200 µm oxaliplatin, within 2 h
# Experimental: as §4, §5, §6, §7
# [6] = system: LOVO cells; experiment: Uptake of oxaliplatin (total platinum and intact drug) in LOVO cells
# Experimental: as §4, §8, §9
# [7] = Pharmacokinetics of total platinum in rats (ICP-MS) in blood, plasma and ultrafiltrate plasma; settings: intraperitoneal, 16.7 nmol/kg, mean ± sd (n = 6)
# Experimental: The biological samples were pretreatmented by adding 60-fold volume of ICP-MS diluent, which is an aqueous solution containing 2% nitric acid and 0.5% Triton. After vortex for 30 s, the samples were placed quietly for few minutes to obtain a clear supernatant for ICP-MS analysis of total platinum.
# Platinum determination was performed with a NexION 2000 Inductively Coupled Plasma-Mass Spectrometer and a Syngistix™ Software-ES version 2.4 (PerkinElmer, USA). Instrumental settings were optimized in order to yield maximum sensitivity for platinum, with the scan mode Peak Hopping, Dwell time per AMU 50 ms and single MCA Channel. […] The assay method was evaluated with four kinds of matrix including blood, plasma, ultrafiltrate plasma, and cell lysate.
# as §10, §11, §12
# [8] = system: LOVO cells; experiment: Elimination of oxaliplatin in LOVO cells; format: in vitro ADME, Human; settings: 200 µm oxaliplatin 30 min
# Experimental: as §1, §2, §3
# [9] = ng Pt/mg protein of subcellular organelles
# [10] = HCT-116, 200 µm oxaliplatin, 15-120 min, normalized to cellular protein
# [11] = intact drug in blood, 16.7 nmol/kg, mean ± sd (n = 6)
# [12] = intact drug in plasma, 16.7 nmol/kg, mean ± sd (n = 6)
# [13] = intact drug in ultrafiltrate plasma, 16.7 nmol/kg, mean ± sd (n = 6)
# [14] = 200 µm oxaliplatin, 15-120 min, normalized to cellular protein
# [15] = total Pt in ultrafiltrate plasma
compound,measurement,setting,value
"O=C1[O][Pt]2([NH][C@@H]3CCCC[C@H]3[NH]2)[O]C1=O [oxaliplatin, Oxaliplatin]",time to complete elimination of cellular intact oxaliplatin,[1]; then blank medium,1 h
same,cellular platinum after change to blank medium,[1]; then blank medium up to 2 h,just has a little decrease in 2 h
same,subcellular accumulation of Pt in organelles over incubation time,[2],increased with the increasing incubation time
same,"order of Pt concentration in cytosol, mitochondria and nucleus",[2]; [9],"the concentration of Pt in cytosol is more than that in mitochondria, followed by the concentration of Pt in nucleus"
same,cellular concentration of total platinum and intact oxaliplatin versus medium concentration,"[3]; HCT-116, 20-500 µM oxaliplatin, 30 min",increased with increasing medium concentration of oxaliplatin
same,cellular accumulation of intact oxaliplatin over incubation time,[3]; [10],"increased over incubation time at the beginning of drug treatment (0–45 min), then gradually decreased (45–120 min)"
same,cellular total platinum over incubation time,[3]; [10],increased within increasing incubation time
same,cellular accumulation of platinum or oxaliplatin versus temperature,"[3]; HCT-116, 200 µm oxaliplatin, 30 min, 4 °C vs 37 °C, P < 0.001",significant higher at 37 °C than that at 4 °C
same,Cl,[4]; [11],49 mL/h/kg and 49 ± 6.6 mL/h/kg
same,Cmax,[4]; [11],0.42 ± 0.06 µM
same,T1/2,[4]; [11],33 ± 2.4 min
same,Vz,[4]; [11],0.0408 L/kg and 0.0408 ± 0.0058 L/kg
same,Cl,[4]; [12],6.9 mL/h/kg and 6.9 ± 0.6 mL/h/kg
same,Cmax,[4]; [12],3.9 ± 0.34 µM
same,T1/2,[4]; [12],10.8 ± 0 min
same,Vz,[4]; [12],0.0018 L/kg and 0.0018 ± 0.0001 L/kg
same,Cl,[4]; [13],7.2 mL/h/kg and 7.2 ± 1.7 mL/h/kg
same,Cmax,[4]; [13],3.93 ± 0.45 µM
same,T1/2,[4]; [13],10.8 ± 0.6 min
same,Vz,[4]; [13],0.0019 ± 0.0006 L/kg
same,complete elimination time of intact drug,[4]; intact drug in blood,2 h
same,subcellular accumulation of Pt in organelles over incubation time,[5],increased with the increasing incubation time
same,"order of Pt concentration in cytosol, mitochondria and nucleus",[5]; [9],"the concentration of Pt in cytosol is more than that in mitochondria, followed by the concentration of Pt in nucleus"
same,cellular concentration of total platinum and intact oxaliplatin versus medium concentration,"[6]; 20-500 µM oxaliplatin, 30 min",increased with increasing medium concentration of oxaliplatin
same,cellular accumulation of intact oxaliplatin over incubation time,[6]; [14],"increased over incubation time at the beginning of drug treatment (0–45 min), then gradually decreased (45–120 min)"
same,cellular total platinum over incubation time,[6]; [14],increased within increasing incubation time
same,cellular accumulation of platinum or oxaliplatin versus temperature,"[6]; 200 µm oxaliplatin, 30 min, 4 °C vs 37 °C, P < 0.001",significant higher at 37 °C than that at 4 °C
same,Vz,[7]; total Pt in blood,0.001 L/kg
same,Cl,[7]; total Pt in plasma,0.1 mL/h/kg
same,Vz,[7]; total Pt in plasma,0.004 L/kg
same,Cl,[7]; [15],1.4 mL/h/kg
same,Vz,[7]; [15],0.038 L/kg
same,time to complete elimination of cellular intact oxaliplatin,[8]; then blank medium,1 h
same,cellular platinum after change to blank medium,[8]; then blank medium up to 2 h,just has a little decrease in 2 h
"N.N.O=C([O-])C1(C(=O)[O-])CCC1.[Pt+2] [carboplatin, Carboplatin]",Cl,[4]; [11],1.1 mL/h/kg and 1.1 ± 0.1 mL/h/kg
same,Cmax,[4]; [11],9.9 ± 0.45 µM
same,T1/2,[4]; [11],122 ± 7.8 min
same,Vz,[4]; [11],0.0033 L/kg and 0.0033 ± 0.0004 L/kg
same,Cl,[4]; [12],0.1 mL/h/kg
same,Cmax,[4]; [12],11.2 ± 0.49 µM
same,T1/2,[4]; [12],117 ± 7.2 min
same,Vz,[4]; [12],0.0028 L/kg and 0.0028 ± 0.0003 L/kg
same,Cl,[4]; [13],1.2 mL/h/kg and 1.2 ± 0.2 mL/h/kg
same,Cmax,[4]; [13],10.1 ± 0.75 µM
same,T1/2,[4]; [13],91.2 ± 29.4 min
same,Tmax,[4]; [13],25.2 ± 11.4 min
same,Vz,[4]; [13],0.0027 ± 0.0009 L/kg
same,complete elimination time of intact drug,[4]; intact drug in blood,12 h
same,Vz,[7]; total Pt in blood,0.009 L/kg
same,Cl,[7]; total Pt in plasma,0.33 mL/h/kg
same,Vz,[7]; total Pt in plasma,0.014 L/kg
same,Cl,[7]; [15],0.67 mL/h/kg
same,Vz,[7]; [15],0.016 L/kg
